Measurements taken from US11033599B2, “Pennisetum extract, process for manufacturing the same and uses thereof” (METAL INDUSTRIES RESEARCH & DEVELOPMENT CENTRE, priority 2017, dated 2021).

System: ovariectomized SD female rats
Test: In vivo anti-osteoporosis assay, digital medical image analysis of femurs (DXA / Micro-CT)
Design: species or system rat
Details: femur, OVX SD female rats, oral, 3 months, L 50 mg/kg, E2 estrogen 50 μg/kg, mean ± S.E.M., n=6
Protocol: In this example, an in vivo assay for anti-osteoporosis activity of the Pennisetum extract was carried out on ovariectomized SD female rats in an animal feeding experiment mode, and the analysis of the femur bone mineral density and trabecular bone measurement was performed to confirm the pharmacological activity. The experimental method is as follows: (1) Test substance and control substances: The test group (L) uses the Pennisetum alcohol extract prepared in the foregoing Example 1 as the test substance. The blank control group (Control) and the ovariectomized group (OVX) were administered with ethanol as the control substance. The positive control group (E2) was administered with estrogen as the control substance. (2) Test animals: Test animals (including the test group, ovariectomized group and positive control group) were ovariectomized SD female rats, and the test on animals simulating the menopausal mode was started 2 weeks after oophorectomy. The blank control group was SD female rats without oophorectomy (only subjected to sham surgery). (3) Animal feeding management: The feeding environment was temperature 20° C. to 25° C.; humidity 65% to 80%; and lighting time 12 hours (monitoring environment every day). During the acclimation and test period, every 4 female rats were housed in an autoclaved plastic rearing cage (46 cm×25 cm×20 cm). Drinking water was treated with a reverse osmosis pure water machine, and then charged in a high temperature autoclaved plastic bottle to give the test animals for free drinking. (4) Acclimation: Ovariectomized SD female rats delivered by BioLASCO Co., Ltd. were acclimated for one week after entering the laboratory. During this period, clinical symptoms were observed every day, and healthy rats with normal weight gain were confirmed for the test. (5) Administration of test substance and control substances: After one week of acclimation, the experimental rats were orally administered with different doses of Pennisetum alcohol extract, ethanol or estrogen for 3 consecutive months, and then all the experimental rats were fasted one night before sacrifice to simulate the clinically applicable route of administration for the human body. During the 3 consecutive months of testing, according to the weight of the day before the administration, the test group was administered with a solution of the Pennisetum alcohol extract (10 mL/kg), which was prepared by dissolving 50 mg of Pennisetum alcohol extract in 10.0 mL of 10% ethanol; the blank control group and the ovariectomized group were administered with 10% ethanol (10.0 mL/kg); and the positive control group was administered with estrogen, which was dissolved in 10% ethanol (10.0 mL/kg). (6) The animal grouping was performed according to the body weight in an S-type order after the animals gained weight. The bone density (mass/volume) of the appropriate bone was measured by a dual energy X-ray absorptiometer (DXA) or micro-computerized tomography (Micro-CT, μ-CT; also used to measure the trabecular number). During the measurement, the DXA with two different energies was used to scan the inspection site, then the X-rays passing through the tested site was received by a scintillation detector, and then a computer analyzed the data to calculate the bone quality of the tested site. The records of the percentage of bone mass (bone volume/tissue volume), trabecular separation/spacing (Tb.Sp), trabecular number (Tb.N) and bone mineral density (BMD) in each group are shown in Table 5. It is represented by mean±standard error (S.E.M.) (n=6), and a, b, c, and d in the table represent statistical differences between the groups. The experimental data were statistically analyzed by one-way ANOVA. The statistical method of correlation index changes between the groups was statistically analyzed by Duncan test. […]

[1] = listed as positive control group

estrogen [E2]
Bone Mineral Density: 0.619 mg/cm^2
Percentage of Bone Mass (bone volume/tissue volume): 10.512%
Trabecular Number (Tb.N): 0.908 ± 1/mm
Trabecular Separation/Spacing (Tb.Sp): 1.103 mm
Percentage of Bone Mass (bone volume/tissue volume) [1]: 10.512±1.071%
Trabecular Number (Tb.N) [1]: 0.908±0.085 1/mm
